In patent publication US20230172981A1, “METHODS AND COMPOSITIONS FOR STIMULATION OF CHIMERIC ANTIGEN RECEPTOR T CELLS WITH HAPTEN LABELLED CELLS” (Seattle Children's Hospital (dba Seattle Children's …, priority 2020, published 2023):

System: CD19+K562 cells
Assay: Cytokine release by antiFL CAR T cells with hapten-labeled cells
Assay type: cell-based
Details: trend; hapten-labeled cells prepared with 5 μM FL-DHPE
Experimental: Hapten-labeled cells were prepared. CD19+K562 cells were incubated either overnight with 5 μM FL-DHPE or for 20 min with an CD19 antibody labeled with FITC. The hapten-labeled cells were incubated with either one of two antiFL CAR T cells (FITC-E2 scFv, or 4M5.3 scFv). […] Hudecek M, et al., (2013) Clin Cancer Res. 19:3153-64, which is incorporated by reference in its entirety.
The levels of cytokines released by the antiFL CAR T cells were determined. […] The levels of released IFN-γ, and TNF-α were lower for hapten-labeled cells contacted with the antiFL(4M5.3) CAR T cell.

CCCCCCCCCCCCCCCC(=O)OCC(COP(=O)(O)OCCNC(=S)Nc1ccc2c(c1)C(=O)OC21c2ccc(O)cc2Oc2cc(O)ccc21)OC(=O)CCCCCCCCCCCCCCC (stereo not shown) [FL-DHPE, N-(Fluorescein-5-Thiocarbamoyl)-1,2-Dihexadecanoyl-sn-Glycero-3-Phosphoethanolamine]
cytokine release induced, compared to cells prepared with CD19 antibody labeled with FITC: higher levels of cytokine release
